The target in assay [1] is T1, Sterol O-acyltransferase 1 (Homo sapiens, UniProt P35610).
T1 sequence (P35610 whole entry): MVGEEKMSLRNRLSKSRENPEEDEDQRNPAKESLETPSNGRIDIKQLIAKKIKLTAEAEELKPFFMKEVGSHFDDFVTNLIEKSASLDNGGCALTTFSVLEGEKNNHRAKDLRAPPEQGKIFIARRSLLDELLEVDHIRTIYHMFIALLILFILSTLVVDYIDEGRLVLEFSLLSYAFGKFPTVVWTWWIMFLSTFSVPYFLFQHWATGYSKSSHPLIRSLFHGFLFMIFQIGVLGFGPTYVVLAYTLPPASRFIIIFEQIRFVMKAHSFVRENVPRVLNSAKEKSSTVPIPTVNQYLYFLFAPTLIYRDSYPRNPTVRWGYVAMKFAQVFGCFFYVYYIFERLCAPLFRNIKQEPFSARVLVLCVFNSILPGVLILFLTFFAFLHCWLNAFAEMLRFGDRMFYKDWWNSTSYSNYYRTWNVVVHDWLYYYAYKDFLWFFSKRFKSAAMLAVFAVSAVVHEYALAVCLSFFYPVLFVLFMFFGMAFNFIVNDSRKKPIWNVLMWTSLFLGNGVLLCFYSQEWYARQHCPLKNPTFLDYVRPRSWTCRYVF
Kind of assay: Inhibition of ACAT1- mediated cholesteryl ester synthesis in macrophages.

Assay [2] concerns the target T2, Sterol O-acyltransferase 1 (Homo sapiens) (UniProt P35610).
T2 sequence (whole entry): T1 sequence (P35610 whole entry)
In words: Inhibition of ACAT1- mediated cholesteryl ester synthesis in macrophages up to 10 uM.

Active and inactive are the calls of the source. No cut-off for these calls is given here.

IC50 and inhibition data for two compounds are collected here from ChEMBL document CHEMBL1932979, “Conformationally restricted analog and biotin-labeled probe based on beauveriolide III” (Bioorg Med Chem Lett, 2012).

As usually defined, the IC50 is the concentration needed to halve the response being measured.

For the compound `CCCC[C@H](C)[C@@H]1CC(=O)N[C@@H](C(c2ccccc2)c2ccccc2)C(=O)N[C@H](Cn2cc(CNC(=O)CCCCNC(=O)CCCC[C@@H]3SC[C@@H]4NC(=O)N[C@@H]43)nn2)C(=O)N[C@H](C2CCCCC2)C(=O)O1`, the IC50 in assay [1] was found to be 0.8 µM. For the same compound, in assay [2], the inhibition entry was “inactive”.
With `CCCC[C@H](C)[C@@H]1CC(=O)N[C@@H](C(c2ccccc2)c2ccccc2)C2=N[C@H](CO2)C(=O)N[C@H](C2CCCCC2)C(=O)O1`, in assay [1], half-maximal inhibition (IC50) required 0.28 µM.
